Measured values: patent US8946283B2, “Composition for preventing or treating obesity, dyslipidemia, fatty liver or diabetes containing indole-3-carbinol derivative as active ingredient” (Industry-Academic Cooperation Foundation, Yonsei University, priority 2011, dated 2015)

Tested on: 3T3-L1 cells
Assay: Inhibition of adipocyte differentiation, Oil Red O staining of triglyceride
Assay type: cell-based, mouse
Conditions: for differentiation of the preadipocytes 3T3L1: 0.1, 1, 10, 50 and 100 μM, 14 days, vs DMSO control; for triglyceride accumulation in cells: 3T3-L1 cells, FIGS. 1-3
Description: Mouse adipocyte cell line (3T3-L1) was used to investigate the effect of various indole-3-carbinol derivatives on differentiation and growth of adipocytes. The preadipocytes, 3T3-L1 cells, were seeded on a 12-well plate and cultured to confluency using Dulbecco's modified Eagle's medium (DMEM) containing 1% penicillin-streptomycin, 1% nonessential amino acid and 10% fatal bovine serum (FBS), in a 5% CO2 incubator at 37° C. The 3T3-L1 cells grown to confluency were cultured for 2 days in MDI medium containing 0.5 mM isobutylmethylxanthine, 1 μM dexamethasone and 1 μg/mL insulin to differentiate them into adipocytes. Then, the cells were further cultivated in DMEM containing 1 μg/mL insulin to differentiate them into mature adipocytes. The cells were further cultured for 10 more days while replacing DMEM every other day to obtain fully differentiated adipocytes.
From the first day when MDI was added to the 3T3-L1 cells, 16 indole-3-carbinol derivative compounds were treated at concentrations of 0.1, 1, 10, 50 and 100 μM with 2-day intervals. The structure and molecular weight of the 16 indole-3-carbinol derivatives (B518, B521, B525, B528, B538, B540, B542, B544, B545, B546, B547, B549, B551, B556, B558 and B561) are described in Table 1. The derivative compounds were used after being dissolved in DMSO. Only DMSO was added to the negative control group.
After culturing for a total of 14 days, the medium was removed when the differentiation was completed and lipid droplets in the differentiated adipocytes were stained. For this, the cells were washed twice with phosphate buffered saline (PBS), fixed in 10% buffered neutral formalin (BNF) for 1 hour, washed once again with PBS, stained for 1 hour by adding 1 mL of Oil Red O dye, which specifically stains fat red, on the 12-well plate, and washed twice with distilled water. In order to measure the level of triglyceride contained in the differentiated 3T3-L1 cells, the stained lipid droplets were dissolved in 1 mL of isobutanol and optical density (OD) value was measured at 600 nm.

Row | Structure (SMILES) | differentiation of the preadipocytes 3T3L1 | triglyceride accumulation in cells
1 | CCCCN1C(=O)C(O)(c2c[nH]c3ccccc23)c2cc(Br)ccc21 (centres unmarked) [B540, 5′-Bromo-1′-butyl-3′-hydroxy-1′,3′-dihydro-1H,2′H-3,3′-biindol-2′-one] | reduced the differentiation of the preadipocytes 3T3L1 in a concentration-dependent manner | 
2 | COc1ccccc1OCCN1C(=O)C(O)(c2c(C)[nH]c3ccccc23)c2ccccc21 (centres unmarked) [B558, 3′-Hydroxy-1′-[2-(2-methoxyphenoxy)ethyl]-2-methyl-1′,3′-dihydro-1H,2′H-3,3′-biindol-2′-one] | reduced the differentiation of the preadipocytes 3T3L1 in a concentration-dependent manner | 
3 | CCN1C(=O)C(O)(c2c[nH]c3ccccc23)c2cc(Br)ccc21 (centres unmarked) [B544, 5′-Bromo-1′-ethyl-3′-hydroxy-1′,3′-dihydro-1H,2′H-3,3′-biindol-2′-one] | reduced the differentiation of the preadipocytes 3T3L1 in a concentration-dependent manner | 
4 | O=C1N(CCc2ccccc2)c2ccc(Br)cc2C1(O)c1c[nH]c2ccccc12 (centres unmarked) [B518, 5′-Bromo-3′-hydroxy-1′-(2-phenylethyl)-1′,3′-dihydro-1H,2′H-3,3′-biindol-2′-one] | reduced the differentiation of the preadipocytes 3T3L1 in a concentration-dependent manner | effectively reduce triglyceride accumulation in cells
5 | Cc1ccc(OCCN2C(=O)C(O)(c3c(C)[nH]c4ccccc34)c3ccccc32)cc1 (centres unmarked) [B556, 3′-Hydroxy-2-methyl-1′-[2-(4-methylphenoxy)ethyl]-1′,3′-dihydro-1H,2′H-3,3′-biindol-2′-one] | reduced the differentiation of the preadipocytes 3T3L1 in a concentration-dependent manner | 
6 | Cc1[nH]c2ccccc2c1C1(O)C(=O)N(Cc2cccs2)c2ccccc21 (centres unmarked) [B551, 3′-Hydroxy-2-methyl-1′-(2-thienylmethyl)-1′,3′-dihydro-1H,2′H-3,3′-biindol-2′-one] | reduced the differentiation of the preadipocytes 3T3L1 in a concentration-dependent manner | 
7 | Cc1ccc(CN2C(=O)C(O)(c3c[nH]c4ccccc34)c3ccccc32)cc1 (centres unmarked) [B545, 3′-Hydroxy-1′-(4-methylbenzyl)-1′,3′-dihydro-1H,2′H-3,3′-biindol-2′-one] | reduced the differentiation of the preadipocytes 3T3L1 in a concentration-dependent manner | 
8 | Cc1ccc(C)c(CN2C(=O)C(O)(c3c(C)[nH]c4ccccc34)c3ccccc32)c1 (centres unmarked) [B549, 1′-(2,5-Dimethylbenzyl)-3′-hydroxy-2-methyl-1′,3′-dihydro-1H,2′H-3,3′-biindol-2′-one] | reduced the differentiation of the preadipocytes 3T3L1 in a concentration-dependent manner | 
9 | O=C1N(CCc2ccccc2)c2ccccc2C1(O)c1c[nH]c2ccccc12 (centres unmarked) [B538, 3′-Hydroxy-1′-(2-phenylethyl)-1′,3′-dihydro-1H,2′H-3,3′-biindol-2′-one] | reduced the differentiation of the preadipocytes 3T3L1 in a concentration-dependent manner | effectively reduce triglyceride accumulation in cells
10 | CN1C(=O)C(O)(c2c[nH]c3ccccc23)c2cc(Cl)ccc21 (centres unmarked) [B521, 5′-Chloro-3′-hydroxy-1′-methyl-1′,3′-dihydro-1H,2′H-3,3′-biindol-2′-one] | reduced the differentiation of the preadipocytes 3T3L1 in a concentration-dependent manner | 
11 | CC(=O)c1[nH]c2ccccc2c1C(=O)O [B561, 2-Acetyl-1H-indole-3-carboxylic acid] | reduced the differentiation of the preadipocytes 3T3L1 in a concentration-dependent manner | 
12 | Cc1[nH]c2ccccc2c1C1(O)C(=O)N(CCc2ccccc2)c2ccc(Cl)cc21 (centres unmarked) [B547, 5′-Chloro-3′-hydroxy-2-methyl-1′-(2-phenylethyl)-1′,3′-dihydro-1H,2′H-3,3′-biindol-2′-one] | reduced the differentiation of the preadipocytes 3T3L1 in a concentration-dependent manner | 
